Laboratory results as given in paper PMC5746060, “General and Modular Strategy for Designing Potent, Selective, and Pharmacologically Compliant Inhibitors of Rhomboid Proteases” (Cell Chemical Biology, 2017).
Starred links: 1 amine or outer side, 2 acyl side, 3 side chain; linkers in the order of their positions; H or OH if unused. Non-standard residues stand in square brackets, D forms with d. Residues, ends and D or L forms follow the SMILES beside them. *: point of attachment. NH(4-phenylbutyl) = c1ccc(CCCCN*)cc1; X1 = C[C@H](N[*:1])C(=O)C(=O)[*:2]; NHPhenethyl = c1ccc(CCN*)cc1

What was measured:
[1] = target: T1, Escherichia coli rhomboid GlpG (Escherichia coli, UniProt P09391); assay: in vitro GlpG inhibition assay with fluorogenic transmembrane peptide substrate (apparent IC50); type: biochemical
T1 construct: made in house; host or cells: E. coli C41(DE3)
T1 sequence (P09391 whole entry): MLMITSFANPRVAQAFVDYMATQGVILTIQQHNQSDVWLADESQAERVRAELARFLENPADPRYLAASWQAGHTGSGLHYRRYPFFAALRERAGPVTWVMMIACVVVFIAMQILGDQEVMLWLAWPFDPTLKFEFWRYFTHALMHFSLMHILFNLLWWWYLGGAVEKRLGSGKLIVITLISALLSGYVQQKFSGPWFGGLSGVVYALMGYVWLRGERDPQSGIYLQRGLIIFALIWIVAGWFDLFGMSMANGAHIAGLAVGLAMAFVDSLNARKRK
Text: To gain insight into these preferences and their possible interactions, we have generated tetra- and pentapeptidyl chloromethylketones (CMK or cmk henceforth) harboring amino acids preferred in positions P5 to P1 by the Escherichia coli rhomboid GlpG (GlpG henceforth), using the sequence background of the Providencia TatA ([Stevenson et al., 2007]), represented by the parent compound Ac-IATA-cmk. We measured the inhibitory properties of this series of compounds using a newly developed in vitro assay employing a fluorogenic transmembrane peptide substrate ([Ticha et al., 2017]) that faithfully represents a native rhomboid substrate.
Figure 1 The Potency of Substrate-Derived Inhibitors Can be Improved by Modifying the Amino acid Sequence of the P5 to P1 Region (A) The parent inhibitor Ac-IATA-cmk was modified by introducing strongly preferred amino acids ([Zoll et al., 2014]) into the P4, P3, P2, and P5 positions to yield the listed compounds. Their apparent IC50 values were measured with 1 hr preincubation using 10 μM fluorogenic substrate KSp35 and 0.05% (w/v) DDM. The reported values are best-fit means with SD representative of 2–3 measurements. (B) The sequence-optimized peptidyl chloromethylketones were soaked into the native crystals of GlpG and structures of the complexes were solved by X-ray diffraction (for statistics, see Table S1). […] Note that in the Ac-RVRHA-cmk structure (right), the side chain of the Arg residue in the P5 position of the inhibitor has not been modeled due to poor or missing electron density peaks. (C) Interactions of RVRHA-cmk with GlpG were analyzed by Ligplot+ ([Laskowski and Swindells, 2011]). Ligands are shown as thick sticks with carbons in green, proteins as thin sticks with carbons in gray, hydrogen bonds as yellow dashed lines, and amino acids involved in van der Waals contacts are highlighted as transparent surfaces. The inhibitor forms covalent bonds with S201 and H254 via the chloromethylketone warhead, and it hydrogen bonds with the backbone of residues 196–198 from the L3 loop and residues 248–250 from the L5 loop. van der Waals contacts with the inhibitor are formed by the residues from the L3 loop of GlpG, by S193 and Q189 from TMD3, and by F146 and M120 from the L1 loop that pack against the Val side chain of the P4 position of the inhibitor, as observed previously ([Zoll et al., 2014]). (D) The conformations of peptide inhibitors bound to the active site of GlpG were compared by performing structural alignment of the complexes of VRHAcmk (PDB: 5MT7), RVRHAcmk (PDB: 5MT8), IATAcmk (PDB: 4QO2), and VRMAcho (PDB: 5F5B) in PyMOL ([Schrodinger, 2012]). […] The backbone of the ligands in all complexes has virtually identical conformation with the exception of the distortion of the oxyanion by the chloromethylketone, and the biggest differences are found in the conformation of the P2 side chain, which is not surprising, because almost any side chain can be accommodated in this position ([Zoll et al., 2014]). TEXT PRINTED IN THE PICTURE: (A) AcIATAcmk: IC50 (μM): 213 | (A) AcVATAcmk: IC50 (μM): 450 | (A) AcIAHAcmk: IC50 (μM): 200 | (A) AcIRTAcmk: IC50 (μM): 84 | (A) AcVRHAcmk: IC50 (μM): 27 | (A) AcRVRHAcmk: IC50 (μM): 8
Figure 2 A Screen of Electrophilic Warheads for the Inhibition of Rhomboid Proteases The optimized parent sequence Ac-RVRHA was linked to electrophilic warheads commonly used for targeting serine proteases (reviewed in [Hedstrom, 2002], [Walker and Lynas, 2001]). The apparent IC50 values of the compounds were measured in 0.05% DDM using 10 μM substrate KSp35 ([Ticha et al., 2017]) with 1 hr preincubation. Given are the mean values of 2–3 measurements. […]

[2] = system: MjROM; assay: activity-based probe competition assay, rhomboid panel; type: biochemical, Methanocaldococcus jannaschii; conditions: 50 μM and 0.5 μM; outcompeted the ABP even at 500 nM
Text: Any enzyme inhibitors to be used as specific tools for cell biology or as starting points for drug development must show sufficient level of selectivity toward their intended target. This is particularly important for compounds that react with the catalytic nucleophile common to many serine hydrolases. […] To map the selectivity of peptidyl ketoamides more objectively and widely, we employed activity-based probe (ABP) competition assays that enable a more general and substrate-independent measurement of inhibitory potency, because they rely solely on the competition between a fluorescently labeled activity-based probe and the tested inhibitor ([Nguyen et al., 2015], [Serim et al., 2012]). […]
Figure 5 Selectivity of Peptidyl Ketoamides (A) Selectivity of compounds 9, 10, and 11 for nine rhomboid proteases was profiled using activity-based probe competition assay at 50 μM and 0.5 μM concentration. […] (B) Selectivity of compounds 9, 10, and 11 against human serine hydrolases was analyzed using EnPlex as described ([Bachovchin et al., 2014]).
For inhibitor selectivity profiling against rhomboid proteases ([Wolf et al., 2015]), 400 ng of a purified protein preparation of E. coli GlpG was diluted in 30 μL of reaction buffer (20 mM HEPES, pH 7.4, with 0.05% (w/v) DDM). […] Gels were scanned on a Typhoon Trio+ and analyzed using ImageJ. […]

Structure (SMILES) | fold lower IC50 than the parent compound 1 ([1]; ratio of apparent IC50 values) | competition with ABP labeling of MjROM [2] | IC50 ([1]; 1 hr preincubation, 10 μM fluorogenic substrate KSp35, 0.05% (w/v) DDM) [nM]
CC(=O)N[C@@H](CCCNC(=N)N)C(=O)N[C@H](C(=O)N[C@@H](CCCNC(=N)N)C(=O)N[C@@H](Cc1c[nH]cn1)C(=O)N[C@@H](C)C(=O)C(=O)NCCCCc1ccccc1)C(C)C [compound 11, Ac-RVRHA-CONH-phenylbutyl] (Ac-RVRH[X1]-{NH(4-phenylbutyl)}) | about 1,000 fold | potently competed | 
CC(=O)N[C@@H](CCCNC(=N)N)C(=O)N[C@H](C(=O)N[C@@H](CCCNC(=N)N)C(=O)N[C@@H](Cc1c[nH]cn1)C(=O)N[C@@H](C)C(=O)C(=O)NCCc1ccccc1)C(C)C [compound 9, Ac-RVRHA-CONH-phenylethyl] (Ac-RVRH[X1]-NHPhenethyl) |  | potently competed | 440
